Experimental data as given in US8895754B2, “Process to make UV radiation absorbing 2-phenyl-1,2,3,-benzotriazoles” (DSM IP Assets B.V., priority 2010, dated 2014).

Experiment: Determination of the solubility in cosmetic solvents
Assay type: physicochemical
Conditions: C12-15 Alkylbenzoate; saturated solution stirred 7 days at room temperature; concentration by HPLC
Protocol: 1.5 g of a cosmetic solvent (Capric/Caprylic Triglyceride (Mygliol 318) and C12-15 Alkylbenzoate (Finsolv TN)) is saturated with the respective Benzotriazol-derivative by adding 0.2 g portions while stirring at room temperature. The saturated solution is stirred for 7 days at room temperature. 1 ml of the supernatant is centrifuged and filtered in order to obtain a clear solution. The concentration of the Benzotriazol-derivative is determined by means of HPLC.

Compound	solubility Finsolv TN [%]
Cc1cc(COCCC(C)C)c(O)c(-n2nc3ccccc3n2)c1 [Example 4, 2-(2H-Benzotriazol-2-yl)-6-(3-methyl-butoxymethyl)-4-methyl-phenol]	37
Cc1cc(COCCC(C)C)c(O)c(-n2nc3ccc(Cl)cc3n2)c1 [Example 6, 2-(5-Chloro-2H-benzotriazol-2-yl)-4-methyl-6-(3-methyl-butoxymethyl)-phenol]	19
CCCCC(CC)C(=O)OCc1cc(C)cc(-n2nc3ccccc3n2)c1O (stereo not shown) [Example 7, 2-Ethyl-hexanoic Acid 3-(2H-benzotriazol-2-yl)-2-hydroxy-5-methyl-benzyl Ester]	42
Cc1cc(COC(=O)CC(C)C)c(O)c(-n2nc3ccccc3n2)c1 [Example 8, 3-Methyl-butyric Acid 3-(2H-benzotriazol-2-yl)-2-hydroxy-5-methyl-benzyl Ester]	8
Cc1cc(COCc2cc(C)cc(-n3nc4ccccc4n3)c2O)c(O)c(-n2nc3ccccc3n2)c1 [Example 9, 3,3′-Bis(2H-benzotriazol-2-yl)-2,2′-dihydroxy-5,5′-dimethylbenzyl Ether]	0.02

Same assay, conditions: Capric/Caprylic Triglyceride; saturated solution stirred 7 days at room temperature; concentration by HPLC

Compound	solubility Myritol 318 [%]
Cc1cc(COCCC(C)C)c(O)c(-n2nc3ccccc3n2)c1 [Example 4, 2-(2H-Benzotriazol-2-yl)-6-(3-methyl-butoxymethyl)-4-methyl-phenol]	36
Cc1cc(COCCC(C)C)c(O)c(-n2nc3ccc(Cl)cc3n2)c1 [Example 6, 2-(5-Chloro-2H-benzotriazol-2-yl)-4-methyl-6-(3-methyl-butoxymethyl)-phenol]	12
CCCCC(CC)C(=O)OCc1cc(C)cc(-n2nc3ccccc3n2)c1O (stereo not shown) [Example 7, 2-Ethyl-hexanoic Acid 3-(2H-benzotriazol-2-yl)-2-hydroxy-5-methyl-benzyl Ester]	24
Cc1cc(COC(=O)CC(C)C)c(O)c(-n2nc3ccccc3n2)c1 [Example 8, 3-Methyl-butyric Acid 3-(2H-benzotriazol-2-yl)-2-hydroxy-5-methyl-benzyl Ester]	6
Cc1cc(COCc2cc(C)cc(-n3nc4ccccc4n3)c2O)c(O)c(-n2nc3ccccc3n2)c1 [Example 9, 3,3′-Bis(2H-benzotriazol-2-yl)-2,2′-dihydroxy-5,5′-dimethylbenzyl Ether]	0.01
